The source of these data is patent US9249131B2, “Modulators of ATP-binding cassette transporters” (Vertex Pharmaceuticals Incorporated, priority 2003, dated 2016).

A value given as a limit tells only on which side of the number the result lay.

In this test the target is T1, ΔF508-CFTR (Homo sapiens, UniProt P13569, DEL508-508).
T1 construct: expressed in transfected cells; host or cells: NIH3T3 mouse fibroblasts stably expressing ΔF508-CFTR for the optical, whole-cell and single-channel assays; Fisher rat epithelial (FRT) cells for Ussing chamber follow-up
Kind of test: Assays for ΔF508-CFTR correction and potentiator properties (membrane potential optical and electrophysiological methods). The class given is cell-based. The settings on record: CFTR modulation; for % Activity: % Efficacy; for EC50: tested using the above methods. An excerpt: Assays for Detecting and Measuring ΔF508-CFTR Correction and Potentiator Properties of Compounds
A) Membrane Potential Optical Methods for Assaying ΔF508-CFTR Modulation Properties of Compounds
The optical membrane potential assay utilized voltage-sensitive FRET sensors described by Gonzalez and Tsien (See, Gonzales, J. E. and R. Y. Tsien (1995) “Voltage sensing by fluorescence resonance energy transfer in single cells” Biophys J 69 (4): 1272-80, and Gonzalez, J. E. and R. Y. Tsien (1997) “Improved indicators of cell membrane potential that use fluorescence resonance energy transfer” Chem Biol 4 (4): 269-77) in combination with instrumentation for measuring fluorescence changes such as the Voltage/Ion Probe Reader (VIPR) (See, Gonzalez, J. E., K. Oades, et al. (1999) “Cell-based assays and instrumentation for screening ion-channel targets” Drug Discov Today 4 (9): 431-439).
These voltage sensitive assays are based on the change in fluorescence resonant energy transfer (FRET) between the membrane-soluble, voltage-sensitive dye, DiSBAC2 (3), and a fluorescent phospholipid, CC2-DMPE, which is attached to the outer leaflet of the plasma membrane and acts as a FRET donor. Changes in membrane potential (Vm) cause the negatively charged DiSBAC2(3) to redistribute across the plasma membrane and the amount of energy transfer from CC2-DMPE changes accordingly. The changes in fluorescence emission were monitored using VIPR™ II, which is an integrated liquid handler and fluorescent detector designed to conduct cell-based screens in 96- or 384-well microtiter plates.
To identify small molecules that correct the trafficking defect associated with ΔF508-CFTR; a single-addition HTS assay format was developed. The cells were incubated in serum-free medium for 16 hrs at 37° C. in the presence or absence (negative control) of test compound. As a positive control, cells plated in 384-well plates were incubated for 16 hrs at 27° C. to “temperature-correct” ΔF508-CFTR. The cells were subsequently rinsed 3× with Krebs Ringers solution and loaded with the voltage-sensitive dyes. To activate ΔF508-CFTR, […] and the CFTR potentiator, genistein ([…]), were added along with Cl^−-free medium to each well. The addition of Cl^−-free medium promoted Cl^− efflux in response to ΔF508-CFTR activation and the resulting membrane depolarization was optically monitored using the FRET-based voltage-sensor dyes.
To identify potentiators of ΔF508-CFTR, a double-addition HTS assay format was developed. During the first addition, a Cl^−-free medium with or without test compound was added to each well. After 22 sec, a second addition of Cl^−-free medium containing 2-10 µM forskolin was added to activate ΔF508-CFTR. The extracellular Cl^− concentration following both additions was 28 mM, which promoted Cl^− efflux in response to ΔF508-CFTR activation and the resulting membrane depolarization was optically monitored using the FRET-based voltage-sensor dyes.
• Bath Solution #1: (in mM) NaCl 160, KCl 4.5, CaCl2 2, MgCl2 1, HEPES 10, pH 7.4 with NaOH. • Chloride-free bath solution: Chloride salts in Bath Solution #1 are substituted with gluconate salts. • CC2-DMPE: Prepared as a 10 mM stock solution in DMSO and stored at −20° C. • DiSBAC2(3): Prepared as a 10 mM stock in DMSO and stored at −20° C. Cell Culture
NIH3T3 mouse fibroblasts stably expressing ΔF508-CFTR are used for optical measurements of membrane potential. The cells are maintained at 37° C. in 5% CO2 and 90% humidity in Dulbecco's modified Eagle's medium supplemented with 2 mM glutamine, 10% fetal bovine serum, 1×NEAA, β-ME, 1×pen/strep, and 25 mM HEPES in 175 cm^2 culture flasks. For all optical assays, the cells were seeded at 30,000/well in 384-well matrigel-coated plates and cultured for 2 hrs at 37° C. before culturing at 27° C. for 24 hrs. for the potentiator assay. For the correction assays, the cells are cultured at 27° C. or 37° C. with and without compounds for 16-24 hours.

T1 sequence (P13569 with tags, fused parts or gaps DEL508-508): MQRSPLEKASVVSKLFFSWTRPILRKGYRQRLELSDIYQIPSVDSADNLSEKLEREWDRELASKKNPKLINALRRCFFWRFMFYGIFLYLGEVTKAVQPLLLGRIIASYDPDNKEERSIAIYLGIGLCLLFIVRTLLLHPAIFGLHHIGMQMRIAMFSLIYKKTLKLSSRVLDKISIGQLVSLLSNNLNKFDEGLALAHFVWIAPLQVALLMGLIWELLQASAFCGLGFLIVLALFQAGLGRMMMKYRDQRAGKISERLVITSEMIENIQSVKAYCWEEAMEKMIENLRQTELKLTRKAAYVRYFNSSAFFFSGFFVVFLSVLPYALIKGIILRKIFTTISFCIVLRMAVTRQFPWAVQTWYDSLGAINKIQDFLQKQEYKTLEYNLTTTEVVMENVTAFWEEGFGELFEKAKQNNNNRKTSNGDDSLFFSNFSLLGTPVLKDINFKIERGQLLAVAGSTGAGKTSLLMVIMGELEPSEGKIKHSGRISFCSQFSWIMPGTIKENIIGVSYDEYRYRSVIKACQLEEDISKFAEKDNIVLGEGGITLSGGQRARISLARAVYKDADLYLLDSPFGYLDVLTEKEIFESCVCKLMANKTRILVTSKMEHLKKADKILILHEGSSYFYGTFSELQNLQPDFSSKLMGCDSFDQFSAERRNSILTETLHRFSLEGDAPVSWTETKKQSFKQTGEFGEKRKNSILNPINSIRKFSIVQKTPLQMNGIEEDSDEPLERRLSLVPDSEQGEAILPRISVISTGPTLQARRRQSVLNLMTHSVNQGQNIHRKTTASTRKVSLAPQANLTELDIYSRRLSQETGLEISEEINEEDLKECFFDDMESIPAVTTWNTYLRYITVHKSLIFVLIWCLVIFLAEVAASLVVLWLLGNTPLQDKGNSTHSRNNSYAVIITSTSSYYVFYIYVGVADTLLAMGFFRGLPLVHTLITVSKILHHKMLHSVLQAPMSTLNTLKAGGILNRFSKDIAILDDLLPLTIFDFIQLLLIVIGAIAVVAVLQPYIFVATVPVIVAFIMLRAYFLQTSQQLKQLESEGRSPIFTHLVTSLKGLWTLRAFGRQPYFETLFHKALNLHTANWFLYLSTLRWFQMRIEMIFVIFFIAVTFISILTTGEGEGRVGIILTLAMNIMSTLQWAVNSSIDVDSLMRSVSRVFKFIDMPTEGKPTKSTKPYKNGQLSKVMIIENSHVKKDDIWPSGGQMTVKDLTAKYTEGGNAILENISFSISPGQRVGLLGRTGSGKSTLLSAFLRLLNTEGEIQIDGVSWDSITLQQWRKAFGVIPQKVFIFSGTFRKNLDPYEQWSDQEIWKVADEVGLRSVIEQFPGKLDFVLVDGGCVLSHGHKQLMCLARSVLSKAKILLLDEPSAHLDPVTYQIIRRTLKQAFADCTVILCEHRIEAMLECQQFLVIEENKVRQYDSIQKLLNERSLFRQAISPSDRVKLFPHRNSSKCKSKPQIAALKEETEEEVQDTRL

As for `Cc1cccc2sc(NC(=O)c3ccccc3Cl)nc12` [compound 41], the “% Activity” value is reported as “++ (“++” means between 25% to 100%)” and the EC50 was below 10 µM.

`Cc1cccc2sc(NC(=O)c3cccc(Br)c3)nc12` [compound 42]: the “% Activity” value was “++ (“++” means between 25% to 100%)” and the EC50 was below 10 µM.

For the molecule `O=C(Nc1nc(-c2ccc(Br)cc2)cs1)c1cccc(Cl)c1` [compound 43], the “% Activity” value is “++ (“++” means between 25% to 100%)” and the EC50 is below 10 µM.

In the case of `Cc1ccc(C(=O)Nc2nc(-c3ccccc3)c(C)s2)cc1` [compound 44], the “% Activity” value is listed as “+++ (“+++” means >100%)” and the EC50 fell in the range of 10 to 25 µM.

As for `Cc1ccc(-c2nc(NC(=O)c3ccc(C#N)cc3)sc2-c2ccccc2)cc1` [compound 45], the “% Activity” value is given as “++ (“++” means between 25% to 100%)” and the EC50 fell in the range of 10 to 25 µM.

For the molecule `O=C(Cc1ccccc1)Nc1nc(-c2cccc3ccccc23)cs1` [compound 46], the “% Activity” value is given as “++ (“++” means between 25% to 100%)” and the EC50 was below 10 µM.

Regarding `Cc1ccc(C(=O)Nc2nc(-c3ccc(C)cc3)cs2)cc1` [compound 47], the “% Activity” value is given as “++ (“++” means between 25% to 100%)” and the EC50 was in the range of 10 to 25 µM.

With `Cc1ccc(-c2csc(NC(=O)c3ccccc3)n2)cc1` [compound 48], the “% Activity” value was “+++ (“+++” means >100%)” and the EC50 is below 10 µM.

As to `COc1cccc(C(=O)Nc2nc(-c3ccccc3)cs2)c1` [compound 49], the “% Activity” value is given as “++ (“++” means between 25% to 100%)” and the half-maximal effective concentration (EC50) lay within 10 to 25 µM.

For the molecule `CCC(=O)Nc1nc(-c2ccccc2)c(-c2ccccc2)s1` [compound 50], the “% Activity” value was “+++ (“+++” means >100%)” and the EC50 was below 10 µM.

As to `COc1ccccc1C(=O)Nc1nc(-c2ccccc2)c(-c2ccccc2)s1` [compound 51], the “% Activity” value was “+++ (“+++” means >100%)” and the EC50 was below 10 µM.

In the case of `Cc1ccc(C(=O)Nc2nc(-c3ccccc3)c(-c3ccccc3)s2)cc1` [compound 52], the “% Activity” value is “+++ (“+++” means >100%)” and the EC50 was below 10 µM.

With `O=C(Nc1nc(-c2ccccc2)cs1)c1cccc(Cl)c1` [compound 53], the “% Activity” value is recorded as “+++ (“+++” means >100%)” and the EC50 was below 10 µM.

Consider `Cc1cccc(Cc2cnc(NC(=O)c3ccccc3Cl)s2)c1` [compound 54], for which the “% Activity” value is listed as “++ (“++” means between 25% to 100%)” and the EC50 is 10 to 25 µM.

For `O=C(Nc1nc(-c2ccccc2)cs1)C1CCCCC1` [compound 55], the “% Activity” value is on record as “++ (“++” means between 25% to 100%)” and the EC50 is 10 to 25 µM.

As for `O=C(Nc1ncc(Cc2cccc(Cl)c2Cl)s1)C(c1ccccc1)c1ccccc1` [compound 56], the “% Activity” value was “++ (“++” means between 25% to 100%)” and the EC50 is below 10 µM.

As for `O=C(Nc1ncc(Cc2cc(Cl)ccc2Cl)s1)C(c1ccccc1)c1ccccc1` [compound 57], the “% Activity” value was “++ (“++” means between 25% to 100%)” and the EC50 is below 10 µM.

Consider `CCC(C(=O)Nc1nc(-c2ccncc2)cs1)c1ccccc1` (centres unmarked) [compound 58], for which the “% Activity” value was “++ (“++” means between 25% to 100%)” and the EC50 was 10 to 25 µM.

With `O=C(O)c1ccccc1C(=O)Nc1nc(-c2ccccc2)c(-c2ccccc2)s1` [compound 59], the “% Activity” value is listed as “++ (“++” means between 25% to 100%)” and the EC50 lay in the range of 10 to 25 µM.

Consider `CC(CC(=O)O)CC(=O)Nc1nc(-c2ccccc2)c(-c2ccccc2)s1` (centres unmarked) [compound 60], for which the “% Activity” value is given as “++ (“++” means between 25% to 100%)” and the half-maximal effective concentration (EC50) was in the range of 10 to 25 µM.

`O=C(O)CCCC(=O)Nc1nc(-c2ccccc2)c(-c2ccccc2)s1` [compound 61]: the “% Activity” value is “++ (“++” means between 25% to 100%)” and the EC50 fell in the range of 10 to 25 µM.

In the case of `O=C(Nc1nc(-c2ccccc2)c(-c2ccccc2)s1)c1c(F)cccc1F` [compound 62], the “% Activity” value was “+++ (“+++” means >100%)” and the EC50 is below 10 µM.
